Results taken from patent publication US11066396B2 (priority 2016, dated 2021).

Legend:
[1] = biological target: HDAC1 (Homo sapiens (Human), UniProt Q13547); settings: read-out: HDAC1 IC50
[2] = biological target: HDAC8 (Homo sapiens (Human), UniProt Q9BY41); settings: read-out: HDAC8 IC50
Chain of HDAC8 (Q9BY41 whole entry): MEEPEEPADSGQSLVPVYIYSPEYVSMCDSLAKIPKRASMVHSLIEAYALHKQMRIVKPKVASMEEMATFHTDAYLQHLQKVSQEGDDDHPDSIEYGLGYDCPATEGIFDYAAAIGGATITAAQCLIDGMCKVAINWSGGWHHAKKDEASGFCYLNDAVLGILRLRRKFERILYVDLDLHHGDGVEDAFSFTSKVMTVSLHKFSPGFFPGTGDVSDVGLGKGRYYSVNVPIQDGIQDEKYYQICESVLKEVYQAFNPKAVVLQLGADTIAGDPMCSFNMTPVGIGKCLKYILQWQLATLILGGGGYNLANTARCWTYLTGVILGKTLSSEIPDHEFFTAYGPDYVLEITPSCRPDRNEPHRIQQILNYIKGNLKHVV

Chain of HDAC1 (Q13547 whole entry): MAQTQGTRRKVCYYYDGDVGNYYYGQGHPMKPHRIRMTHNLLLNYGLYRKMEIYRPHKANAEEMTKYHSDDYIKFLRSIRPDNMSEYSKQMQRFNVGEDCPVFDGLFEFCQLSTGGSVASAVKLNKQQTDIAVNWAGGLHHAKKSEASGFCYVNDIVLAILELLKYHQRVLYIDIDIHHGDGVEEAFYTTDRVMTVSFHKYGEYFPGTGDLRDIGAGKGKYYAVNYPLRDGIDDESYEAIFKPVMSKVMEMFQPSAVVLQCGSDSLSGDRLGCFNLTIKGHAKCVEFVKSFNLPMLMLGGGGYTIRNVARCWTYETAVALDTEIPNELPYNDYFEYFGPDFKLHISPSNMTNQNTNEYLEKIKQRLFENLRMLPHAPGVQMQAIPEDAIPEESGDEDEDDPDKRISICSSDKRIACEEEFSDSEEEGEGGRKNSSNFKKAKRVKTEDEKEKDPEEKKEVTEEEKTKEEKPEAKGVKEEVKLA

Compound	IC50 [1] [µM]	IC50 [2] [µM]
Cc1noc([C@@H]2CCC(=O)N2c2ccc(-c3noc(C(F)(F)F)n3)c(F)c2)n1 [Example 333, (5S)-1-{3-fluoro-4-[5-(trifluoromethyl)-1,2,4-oxadiazol-3-yl]phenyl}-5-(3-methyl-1,2,4-oxadiazol-5-yl)pyrrolidin-2-one]	3.3	6.7
O=C1COC[C@@H](CNCc2ccc(-c3noc(C(F)(F)F)n3)cn2)N1 [Example 450, (5R)-5-{[({5-[5-(trifluoromethyl)-1,2,4-oxadiazol-3-yl]pyridin-2-yl}methyl)amino]methyl}morpholin-3-one]	2.8	2.8
COCCN1Cc2ccccc2N(Cc2ccc(-c3noc(C(F)(F)F)n3)cn2)C1=O [Example 429, 3-(2-methoxyethyl)-1-({5-[5-(trifluoromethyl)-1,2,4-oxadiazol-3-yl]pyridin-2-yl}methyl)-3,4-dihydroquinazolin-2(1H)-one]	0.46	2.3
O=C(Nc1ccccc1)c1ccccc1NCc1ccc(-c2noc(C(F)(F)F)n2)cn1 [Example 447, N-phenyl-2-[({5-[5-(trifluoromethyl)-1,2,4-oxadiazol-3-yl]pyridin-2-yl}methyl)amino]benzamide]	0.97	0.74
CC(C)c1ncc(C(=O)N(Cc2ccc(-c3noc(C(F)(F)F)n3)cn2)c2cccc(F)c2)cn1 [Example 53, N-(3-fluorophenyl)-2-isopropyl-N-((5-(5-(trifluoromethyl)-1,2,4-oxadiazol-3-yl)pyridin-2-yl)methyl)pyrimidine-5-carboxamide]	0.17	1.8
FC(F)(F)c1nc(-c2ccc(COc3ncccn3)cc2)no1 [Example 457, 2-({4-[5-(trifluoromethyl)-1,2,4-oxadiazol-3-yl]benzyl}oxy)pyrimidine]	2.6	0.73
FC(F)(F)c1nc(-c2ccc(CNC3Cc4ccccc4C3)nc2)no1 [Example 378, N-({5-[5-(trifluoromethyl)-1,2,4-oxadiazol-3-yl]pyridin-2-yl}methyl)-2,3-dihydro-1H-inden-2-amine]	0.63	4.2
Fc1cccc(C2COCCN2c2ccc(-c3noc(C(F)(F)F)n3)cn2)c1 (racemic) [Example 137, 3-(3-fluorophenyl)-4-(5-(5-(trifluoromethyl)-1,2,4-oxadiazol-3-yl)pyridin-2-yl)morpholine]	0.44	2.3
Cc1nnc(CC(=O)N(Cc2ccc(-c3noc(C(F)(F)F)n3)cc2)c2cccc(C(F)(F)F)c2)n1C [Example 75, 2-(4,5-dimethyl-4H-1,2,4-triazol-3-yl)-N-(4-(5-(trifluoromethyl)-1,2,4-oxadiazol-3-yl)benzyl)-N-(3-(trifluoromethyl)phenyl)acetamide]	0.86	2.3
O=C(N(Cc1ccc(-c2noc(C(F)(F)F)n2)cn1)c1cccc(F)c1)C1(CN2CCOCC2)CC1 [Example 65, N-(3-fluorophenyl)-1-(morpholinomethyl)-N-((5-(5-(trifluoromethyl)-1,2,4-oxadiazol-3-yl)pyridin-2-yl)methyl)cyclopropane-1-carboxamide]	0.24	3
COCCn1nc(C(=O)N(Cc2ccc(-c3noc(C(F)(F)F)n3)cc2)c2cccc(C(F)(F)F)c2)ccc1=O [Example 86, 1-(2-methoxyethyl)-6-oxo-N-(4-(5-(trifluoromethyl)-1,2,4-oxadiazol-3-yl)benzyl)-N-(3-(trifluoromethyl)phenyl)-1,6-dihydropyridazine-3-carboxamide]	1.2	3.3
FC(F)(F)c1nc(-c2ccc(CNc3ccc4nccn4c3)nc2)no1 [Example 357, N-({5-[5-(trifluoromethyl)-1,2,4-oxadiazol-3-yl]pyridin-2-yl}methyl)imidazo[1,2-a]pyridin-6-amine]	0.21	0.96
O=C(N1CCOCC1)N(Cc1ccc(-c2noc(C(F)(F)F)n2)cc1)c1cccc(C(F)(F)F)c1 [Example 32, N-(4-(5-(Trifluoromethyl)-1,2,4-oxadiazol-3-yl)benzyl)-N-(3-(trifluoromethyl)phenyl)morpholine-4-carboxamide]	0.44	2.3
CC(C)N1CCCC(C(=O)N(Cc2ccc(-c3noc(C(F)(F)F)n3)cn2)c2cccc(F)c2)C1 (racemic) [Example 61, N-(3-fluorophenyl)-1-isopropyl-N-((5-(5-(trifluoromethyl)-1,2,4-oxadiazol-3-yl)pyridin-2-yl)methyl)piperidine-3-carboxamide]	0.26	2
Cc1nnc(CC(=O)N(Cc2ccc(-c3noc(C(F)(F)F)n3)cn2)c2cccc(F)c2)s1 [Example 395, N-(3-fluorophenyl)-2-(5-methyl-1,3,4-thiadiazol-2-yl)-N-({5-[5-(trifluoromethyl)-1,2,4-oxadiazol-3-yl]pyridin-2-yl}methyl)acetamide]	0.33	1.3
FC(F)(F)c1nc(-c2ccc(CNc3cncnc3)cc2)no1 [Example 419, N-{4-[5-(trifluoromethyl)-1,2,4-oxadiazol-3-yl]benzyl}pyrimidin-5-amine]	2.6	1.9
FC(F)(F)c1nc(-c2ccc(CNc3cccc4[nH]ncc34)cc2)no1 [Example 415, N-{4-[5-(trifluoromethyl)-1,2,4-oxadiazol-3-yl]benzyl}-1H-indazol-4-amine]	1.6	2.5
O=C1CC[C@@H](CO)N1c1ccc(-c2noc(C(F)(F)F)n2)c(F)c1 [Example 188, (S)-1-(3-Fluoro-4-(5-(trifluoromethyl)-1,2,4-oxadiazol-3-yl)phenyl)-5-(hydroxymethyl)pyrrolidin-2-one]	0.38	0.038
O=C1CCC(c2ccccc2)N1c1ncc(-c2noc(C(F)(F)F)n2)cc1F (stereo not shown) [Example 5, 1-(3-Fluoro-5-(5-(trifluoromethyl)-1,2,4-oxadiazol-3-yl)pyridin-2-yl)-5-phenylpyrrolidin-2-one]	2.3	13
Cc1nc2cc(F)ccc2n1Cc1ccc(-c2noc(C(F)(F)F)n2)cc1F [Example 29, 3-(3-Fluoro-4-((5-fluoro-2-methyl-1H-benzo[d]imidazol-1-yl)methyl)phenyl)-5-(trifluoromethyl)-1,2,4-oxadiazole]	1.6	8.2
FC(F)(F)c1nc(-c2ccc(CNc3cnsc3)nc2)no1 [Example 433, N-({5-[5-(trifluoromethyl)-1,2,4-oxadiazol-3-yl]pyridin-2-yl}methyl)isothiazol-4-amine]	0.89	0.9
O=C1CC[C@@H](c2nc3ccccc3o2)N1c1ccc(-c2noc(C(F)(F)F)n2)cc1 [Example 104, (S)-5-(benzo[d]oxazol-2-yl)-1-(4-(5-(trifluoromethyl)-1,2,4-oxadiazol-3-yl)phenyl)pyrrolidin-2-one]	0.12	0.44
O=C1CC[C@@H](c2nc3ccccc3o2)N1c1ccc(-c2noc(C(F)(F)F)n2)cc1F [Example 22, (S)-5-(Benzo[d]oxazol-2-yl)-1-(2-fluoro-4-(5-(trifluoromethyl)-1,2,4-oxadiazol-3-yl)phenyl)pyrrolidin-2-one]	0.032	0.35
